According to patent EP0533925A1, “OPTICAL ISOMER OF R-FORM OF DIPHENYL ETHER DERIVATIVE AND HERBICIDE CONTAINING THE SAME AS ACTIVE INGREDIENT” (TEIJIN LIMITED, priority 1990, dated 1991):
Where a name gives a salt, the structure may show the parent alone.

Legend:
Format in all cases: in vivo
Parameters in all cases: key: 0 means the state where the plants are as sound as before the application of the active compound; 1, 2, 3 and 4 mean varying degrees of the enfeebled state of the plants between 0 and 5; 1, 2, 3 and 4 mean varying degrees of the enfeebled state of the plants between 0 and 5; 1, 2, 3 and 4 mean varying degrees of the enfeebled state of the plants between 0 and 5; 1, 2, 3 and 4 mean varying degrees of the enfeebled state of the plants between 0 and 5; 5 is the state where the plants are withered or killed by application of the active compound
[1] = tested on: Astragalus sinicus; assay: Herbicidal activity, spray of diphenyl ether with N-phosphonomethylglycine derivative (Test Examples 6 to 10); conditions: Application 0.375 Kg/ha (117) alone
Protocol: (§1) In these examples, all parts means parts by weight, unless otherwise noted. The herbicidal activity was evaluated on a scale of 6 degrees. In other words, 0 means the state where the plants are as sound as before the application of the active compound, while 5 is the state where the plants are withered or killed by application of the active compound, and 1, 2, 3 and 4 mean varying degrees of the enfeebled state of the plants between 0 and 5.
(§2) In each run, the diphenyl ether derivatives and the N-phosphonomethylglycine derivatives shown in Table 3 (in the indicated mixing ratios) was dissolved in 16 parts by volume of a mixture of water and acetone (1 : 1 by volume; containing 0.05 % of a nonionic surfactant, Sorpol-2680) in the indicated mixing ratio, respectively, to prepare spray solutions.
(§3) The plants tested were grown in vinyl resin pots (diameter 10 cm) filled with soil in a green house for 2 to 3 weeks after germination from seeds or tubers.
(§4) The spray solution was applied to the plants so that the total volume sprayed became 4 cc/100 cm², and the herbicidal activity was examined.
(§5) The alphabetical symbols in Tables 2 and 3 represent the following plants, respectively: a: Digitaria adscendens b: Setaria viridis c: Sorghum halepense d: Chenopodium album var. centrorubrum e: Amaranthus mangostanus f: Astragalus sinicus g: Abutilon theophrosti h: Solanum nigrum i: Xanthium strumarium j: Soybean; Glycine max k: Corn; Zea mays Table 2

[2] = tested on: Setaria viridis; assay: as above; conditions: Application 0.375 Kg/ha (117) alone
Protocol: as §1, §2, §3, §4, §5

[3] = tested on: Sorghum halepense; assay: as above; conditions: Application 0.375 Kg/ha (117) alone
Protocol: as §1, §2, §3, §4, §5

[4] = tested on: Xanthium strumarium; assay: as above; conditions: Application 0.375 Kg/ha (117) alone
Protocol: as §1, §2, §3, §4, §5

[5] = tested on: Astragalus sinicus; assay: Herbicidal activity, foliar application of single compounds (Test Examples 1 to 5); conditions: 3 weeks after application
Protocol: as §1
(§6) The diphenyl ethers shown in Table 2 were added to 5000 parts of a mixture of acetone and water (1 : 1 by volume), and 2.6 parts of a nonionic surfactant (Sorpol 2680, tradename) was added to form a solution, so that the ether becomes the prescribed amount in each solution.
(§7) Seeds of plants were sown in the soil, cultivated for 2 to 3 weeks, after germination, then the plants were used for the tests.
(§8) The prepared solution was applied to these plants at the prescribed rate of application in total, then the plants were continuously cultivated for 3 weeks without applying the solution.
as §5

[6] = tested on: Solanum nigrum; assay: as above; conditions: 3 weeks after application
Protocol: as §1, §6, §7, §8, §5

[7] = tested on: Corn; Zea mays; assay: as above; conditions: 3 weeks after application
Protocol: as §1, §6, §7, §8, §5

[8] = tested on: Abutilon theophrosti; assay: as above; conditions: 3 weeks after application
Protocol: as §1, §6, §7, §8, §5

[9] = Rate of Application 0.016 kg/ha
[10] = Rate of Application 0.031 kg/ha

| SMILES | herbicidal activity, Plants f ([1]; 3 days after treatment) | herbicidal activity, Plants f ([1]; 7 days after treatment) | herbicidal activity, Plants f ([1]; 14 days after treatment) | herbicidal activity, Plants b ([2]; 3 days after treatment) | herbicidal activity, Plants b ([2]; 7 days after treatment) | herbicidal activity, Plants b ([2]; 14 days after treatment) | herbicidal activity, Plants c ([3]; 3 days after treatment) | herbicidal activity, Plants c ([3]; 7 days after treatment) | herbicidal activity, Plants c ([3]; 14 days after treatment) | herbicidal activity, Plants i ([4]; 3 days after treatment) | herbicidal activity, Plants i ([4]; 7 days after treatment) | herbicidal activity, Plants i ([4]; 14 days after treatment) | herbicidal activity, Plants f [5, 9] | herbicidal activity, Plants f [5, 10] | herbicidal activity, Plants h [6, 9] | herbicidal activity, Plants h [6, 10] | herbicidal activity, Plants k [7, 9] | herbicidal activity, Plants k [7, 10] | herbicidal activity, Plants g [8, 9] | herbicidal activity, Plants g [8, 10] |
| --- | --- | --- | --- | --- | --- | --- | --- | --- | --- | --- | --- | --- | --- | --- | --- | --- | --- | --- | --- | --- |
| O=C(O)CNCP(=O)(O)O [Compound (117), N-phosphonomethylglycine isopropylammonium salt] | 0 | 0 | 0 | 0 | 0 | 1 | 0 | 0 | 1 | 0 | 0 | 1 |  |  |  |  |  |  |  |  |
| COC(=O)C(C)Oc1cc(Oc2ccc(C(F)(F)F)cc2Cl)ccc1C#N (stereo not drawn) [Compound (1), Methyl α-[2-cyano-5-(2-chloro-4-trifluoromethylphenoxy)phenoxy]propionate] |  |  |  |  |  |  |  |  |  |  |  |  | 5 | 5 | 5 | 5 | 5 | 5 | 5 | 5 |
